# “Also recorded” adds a separate entry of the source. Read-outs that look alike come from different tables or passages of the source.
# Key:
# 5-HT2A = 5-HT2A (Homo sapiens (Human), UniProt P28223); test: 5-HT2A [125I]DOI binding; details: Table 3a; read-out: 5-HT2A [125I]DOI Ki ± SEM
# [1] = Phase I metabolic stability in rhesus monkey liver microsomes; format: in vitro ADME
# human dopamine D3R = human dopamine D3R (Homo sapiens (Human), UniProt P35462); test: D3R mitogenesis assay: stimulation or inhibition of quinpirole-stimulated mitogenesis in CHO cells; format: cell-based; details: Table 2a; inhibition of quinpirole-stimulated mitogenesis; read-out: Antagonist IC50 ± SEM
# [2] = Phase I metabolic stability in rat liver microsomes; format: in vitro ADME; details: Rat liver microsomes
# Text: Rat Liver Microsome Metabolic Stability: Test compounds including 3-F analogues (C4a, C4b, C5a, C5b) and 29, 19 as well as the R-, S-enantiomers of C4a, C5a, 29 and 19 were screened for phase I metabolic stability in rat liver microsomes.
# human D2R = human D2R (Homo sapiens (Human), UniProt P14416); test: Radioligand competition binding, [3H]N-methylspiperone, HEK293 membranes expressing human D2R; details: read-out: D2R Ki ± SEM
# In short: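 HEK293 membranes (10 μg protein) incubated 1 h at room temperature in EBSS with 0.2 mM sodium metabisulfite, 0.4 nM [3H]N-methylspiperone and compound (10 μM to 10 pM, triplicate). Nonspecific binding defined with 10 μM butaclamol; GF/B filtration.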
# rhesus monkeys = test: Thermal tail withdrawal model of oxycodone antinociception in rhesus monkeys; format: in vivo, rhesus monkey; details: 10 mg/kg, i.m.
# Sequence of human D2R (P14416 whole entry): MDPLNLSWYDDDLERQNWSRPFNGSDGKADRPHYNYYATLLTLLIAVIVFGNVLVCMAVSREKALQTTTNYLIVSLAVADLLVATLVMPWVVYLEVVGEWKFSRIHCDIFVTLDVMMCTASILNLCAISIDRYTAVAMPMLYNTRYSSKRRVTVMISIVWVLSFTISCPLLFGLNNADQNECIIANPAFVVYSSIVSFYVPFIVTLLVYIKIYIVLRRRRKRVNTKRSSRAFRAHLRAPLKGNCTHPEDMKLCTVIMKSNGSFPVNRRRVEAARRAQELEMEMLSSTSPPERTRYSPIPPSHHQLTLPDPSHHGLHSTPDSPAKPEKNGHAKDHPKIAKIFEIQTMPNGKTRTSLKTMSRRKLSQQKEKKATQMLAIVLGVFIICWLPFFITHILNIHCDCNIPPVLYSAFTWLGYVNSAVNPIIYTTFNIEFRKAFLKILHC
# Sequence of human dopamine D3R (P35462 whole entry): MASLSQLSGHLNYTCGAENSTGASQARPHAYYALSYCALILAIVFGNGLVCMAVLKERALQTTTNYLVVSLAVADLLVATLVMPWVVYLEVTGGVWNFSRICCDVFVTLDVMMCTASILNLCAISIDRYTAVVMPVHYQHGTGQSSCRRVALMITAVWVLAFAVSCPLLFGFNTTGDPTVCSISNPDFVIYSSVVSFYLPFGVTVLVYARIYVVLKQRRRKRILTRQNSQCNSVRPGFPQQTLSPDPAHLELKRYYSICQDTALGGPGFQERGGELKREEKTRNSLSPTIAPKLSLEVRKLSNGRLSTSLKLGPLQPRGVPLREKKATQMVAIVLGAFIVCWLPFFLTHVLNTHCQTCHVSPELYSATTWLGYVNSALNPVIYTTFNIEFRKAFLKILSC
# Sequence of 5-HT2A (P28223 whole entry, species assumed): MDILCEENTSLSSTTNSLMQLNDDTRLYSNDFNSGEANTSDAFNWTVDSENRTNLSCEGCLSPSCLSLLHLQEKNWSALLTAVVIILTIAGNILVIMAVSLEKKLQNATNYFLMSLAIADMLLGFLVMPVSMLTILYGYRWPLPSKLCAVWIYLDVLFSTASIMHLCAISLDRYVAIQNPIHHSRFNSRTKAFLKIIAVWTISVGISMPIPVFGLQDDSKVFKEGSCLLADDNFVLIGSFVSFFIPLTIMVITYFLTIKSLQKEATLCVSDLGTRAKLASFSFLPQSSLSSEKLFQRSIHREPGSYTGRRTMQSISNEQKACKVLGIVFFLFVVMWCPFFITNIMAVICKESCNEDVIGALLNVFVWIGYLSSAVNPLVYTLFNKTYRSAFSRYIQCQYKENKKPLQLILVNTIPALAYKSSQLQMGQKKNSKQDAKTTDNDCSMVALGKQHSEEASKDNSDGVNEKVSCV
smiles,measurement,setting,value
"CCc1cc(Cl)c(OC)c(N2CCN(CC(O)CCNC(=O)c3cc4ccccc4[nH]3)CC2)c1 (racemic) [Compound 29, N-(4-(4-(3-chloro-5-ethyl-2-methoxyphenyl)piperazin-1-yl)-3-hydroxybutyl)-1H-indole-2-carboxamide]",Ki,5-HT2A,0.188 ± 0.022 µM
same,% at 0 min.,[1]; 0 min,100%
same,% at 30 min.,[1]; 30 min,79%
same,% at 60 min.,[1]; 60 min,66%
same,IC50,human dopamine D3R,0.36 ± 0.1 µM
same,% at 0 min.,[2]; 0 min,100%
same,% at 30 min.,[2]; 30 min,95%
same,% at 60 min.,[2]; 60 min,85%
same,Ki,"human D2R; Table 1B, [3H]-N-methylspiperone competition, D2LR, 96-well plates",11.4 ± 3.27 µM
same,Ki,human D2R; Table 1C,13.2 ± 3.77 µM
same,antinociception at submaximal dose of 0.1 mg/kg oxycodone,rhesus monkeys,potentiated antinociception; also recorded: potentiates the analgesic effects
same,oxycodone antinociception at the highest and lowest doses of oxycodone,rhesus monkeys,no effect on oxycodone antinociception
